# Reference: article PMC8215932, “Novel neuroprotective peptides in the venom of the solitary scoliid wasp Scolia decorata ventralis” (The Journal of Venomous Animals and Toxins Including …, 2021)
# Where no end group is shown, it is not given here.
# How the values were obtained:
# [1] = tested on: human neuroblast-like cell line SH-SY5Y; conditions: cited from earlier work
# Excerpt: (§1) BPP-11e (<[…]) and BPP-AP (<[…]), for example, ...
# [2] = tested on: PC12 cells
# Description: (§2) Neuronal cell line (PC12) was used to evaluate the neuroprotective effects of α-scoliidine and β-scoliidine against oxidative stress in vitro. PC12 cell is derived from a transplantable rat pheochromocytoma and was purchased from American Type Culture Collection (USA) (ATCC® CRL-1721™). Cells were routinely cultured in DMEM medium (Sigma-Aldrich) supplemented with 10% fetal bovine serum (Gibco, Waltham, USA), 1% (v/v) of 10000 U/mL penicillin, 10 mg/mL streptomycin and 25 μg/mL amphotericin B solution (Sigma-Aldrich) at 37 °C in an atmosphere of 5% CO2 and 95% air (Water Jacketed CO2 Incubator, Thermo Scientific). At 80% confluence, cells were passaged using trypsin-EDTA solution [0.05% (m/v) trypsin and 0.02% (m/v) EDTA]. Culture medium was replaced every 2-3 days.
# PC12 cells were seeded into 96-well plates (Nest Biotechnology, Rahway, USA), at 2.0 × 10^4 cells per well, and were treated with different concentrations (0.1 to 10 µM) of α-scoliidine and β-scoliidine in a final volume of 0.15 mL. The plate was incubated at 37°C for 3, 6, 12, 24, and 48 h. For each concentration and time course studied, there were control and DMSO groups, which represent untreated cells (only one equal volumes of the culture medium) and treated with DMSO 2.5% (v/v) diluted in the medium culture, respectively. The cytotoxic effects of both compounds were determined using crystal violet assay, according to Feoktistova et al.. Briefly, the medium was aspirated, and the cells were washed twice in a gentle stream of tap water. Then, 50 μL of a 0.5 % (v/v) crystal violet staining solution was added to each well, and incubated for 20 min at room temperature on a bench rocker with a frequency of 20 oscillations per min. The plate was washed four times and air-dried for at least 2 h at room temperature. Subsequently, methanol (200 μL) was added to each well, and the plate was incubated with its lid on for 20 min at room temperature on a bench rocker with a frequency of 20 oscillations per min. After, the absorbance of the sample was measured at 570 nm using a SpectraMax reader (Molecular Devices, CA, USA). The cytotoxicity was expressed as percentage (%) of cell integrity relative to control cells (100%).
# (§3) All data are presented as mean ± SD of three independent experiments (n = 3) in triplicate. Data were analyzed using one-way analysis of variance (ANOVA) for between-groups comparisons followed by a Tukey’s post-hoc test for multiple comparisons. Values of p < 0.05 were considered to be statistically significant. The analyses were performed using GraphPad Prism 6.0 software (GraphPad Software, Inc., La Jolla, CA).
# [3] = tested on: ACE; assay: Cleavage by ACE (stability test, HPLC); format: in vitro ADME, rabbit; conditions: peptide 30 µM, 37°C, four hours, RP-HPLC, UV 214 nm; for metabolised at 4 h, 30 µM: rabbit, ACE
# Excerpt: All chemicals used in the present study were of analytical reagent grade (purity higher than 95%) and purchased from Calbiochem-Novabiochem Corporation (USA), Gibco BRL (New York, USA), Fluka Chemical Corp. (Buchs, Switzerland) or Sigma-Aldrich Corporation (MO, USA). The ACE I from rabbit lung (EC 3.4.15.1) from Sigma-Aldrich. For the reverse phase chromatography, acetonitrile and TFA were acquired from J.T. Baker. The FRET substrate Abz-FRK(Dnp)P-OH (used by ACE-I assays) were provided by Prof. Adriana Carmona, from the Department of Biophysics of UNIFESP-EPM, São Paulo, Brazil.
# Both peptides (30 µM) were incubated separately with ACE ([…]) at 37°C for four hours. Samples containing only the synthetic peptides were used as negative control. After incubation, samples were analyzed by reverse phase chromatography on HPLC (Prominence, Shimadzu), using a Shim-pack VP-ODS C-18 column (4.6× 150 mm). Solvents used were 0.1% (v/v) TFA in water (solvent A), and acetonitrile plus solvent A (9:1) as solvent B. Separations were performed at a flow rate of 1 mL/min and a 10-60% gradient of solvent B over 20 min. In all cases, elution was followed by the measurement of ultraviolet absorption (214 nm).
# [4] = tested on: human neprilysin (NEP); assay: Cleavage by NEP; format: in vitro ADME; conditions: isolated human neprilysin (NEP)
# Excerpt: Table 8 Hydrolyses of α-scoliidine and β-scoliidine by human neprilysin (NEP) and angiotensin-converting enzyme (ACE). | column: Cleavage (%)
# [5] = tested on: human neural stem cells; conditions: cited from earlier work
# Excerpt: as §1
# [6] = tested on: cells; conditions: cited from earlier work
# Excerpt: The phenomenon of synergistic toxicity of H2O2 effects when two agents are used together, and efficiently potentiate cell damage, has been reported in the literature. Of the several examples of H2O2 toxicity potentiation by oth ...
# [7] = tested on: PC12 cells; conditions: cited from earlier work
# [8] = tested on: PC12 cells; remark: listed apart in the source
# Description: as §2
# PC12 cells were seeded at 2 x 10^4 cells/well in a 96-well plate (Nest Biotechnology, Rahway, USA) for 24 h, and then two neuroprotective assays were evaluated: 1) Cells were pre-treated with α-scoliidine or β-scoliidine (1 µM) at 37°C for 22 h and, after the mediums were replaced containing the peptide and H2O2 (0.6 mM) and incubated for 2 h more; 2) Cells were pre-treated with α-scoliidine or β-scoliidine (1 µM) for 4 h at 37°C and, after the mediums were replaced containing peptide and H2O2 (0.6 mM) and incubated for 20 h more. The control, α-scoliidine and β-scoliidine groups (without H2O2) were incubated under the same conditions. Next, all experimental groups were analyzed by the crystal violet assay.
# as §3
# [9] = tested on: PC12 cells; format: cell-based, rat
# Description: Culture medium was replaced every 2-3 days.
# The effects of α-scoliidine or β-scoliidine on the mitochondrial metabolism of PC12 cells were estimated using 3-(4,5-dimethylthiazol-2-yl)-2,5-diphenyltetrazolium bromide (MTT) reduction assay, as previously described. […] In addition, to the experimental groups mentioned above, two more groups were included in which cells were treated with L-N^Ω-Nitroarginine methyl ester (L-Name; 1 mM) and Bradykinin (Bk; 0.3 µM) in the presence or absence of H2O2. After treatments, cells were treated with 0.5 mg/mL MTT in the same medium culture for 3 h at 37°C. The resulting formazan produced by both cell treatments were dissolved by addition of DMSO. The amount of MTT formazan dissolved in DMSO was determined by measuring absorbance with a microplate reader (Spectramax M3 multi-mode, Molecular Devices, CA, EUA) at 540 nm. Data were expressed as the mean ± SD of mitochondrial metabolism percentage in relation to the control.
# [10] = tested on: nicotinic acetylcholine receptor (nAChR); conditions: prey central nervous system; cited from earlier work
# Excerpt: The first study of solitary wasp venoms was reported in 1987. Two kinins, threonine^6-bradykinin (Thr^6-BK) and megascoliakinin, were isolated and characterized from the venoms of the European scoliid wasps Colpa interrupta and Megascolia flavifrons, respectively. […] Thr^6-BK may be a common component of solitary scoliid wasp venoms, since we identified this peptide as a major component in three scoliid wasp venoms found in Japan [[1 ...
# [11] = 0.1 to 10 µM, n = 3 in triplicate
molecule,measurement,setting,value
<EARPPHPPIPP [BPP-11e],Neuroprotection against H2O2-induced oxidative stress,[1],not good neuroprotective peptides against the H2O2-induced oxidative stress
DYVTVKGFSPLR [α-scoliidine],"Cytotoxicity, cell integrity vs control or DMSO","[2]; 0.1 to 10 µM, 3, 6, 12, 24, and 48 h, mean ± SD of three independent experiments in triplicate","did not show any significant cytotoxicity (p > 0.05) in all dose concentrations, and at the times tested"
same,Cell integrity / neurotoxicity at 6 h,[2]; [11],showed a tendency for neurotoxicity at 6 h of treatment
same,Cleavage by ACE,[3],not cleaved by the metallopeptidase
same,"metabolised at 4 h, 30 µM",[3],< 0.01%
same,metabolised,[4],< 0.01%
"Aβ 42: amyloid-β peptide (Aβ) isoform, Aβ 42",Effect on cell proliferation,[5],promotes cell proliferation of human neural stem cells in a concentration-dependent manner
<EARPPHPPIPPAP [BPP-AP],Neuroprotection against H2O2-induced oxidative stress,[1],not good neuroprotective peptides against the H2O2-induced oxidative stress
O=C1O[C@H]([C@@H](O)CO)C(O)=C1O [ascorbic acid],Effect on intracellular oxidative potential of H2O2,[6],enhancement of the intracellular oxidative potential of H2O2
Cc1cccc([C@H](C)c2cnc[nH]2)c1C [Dexmedetomidine],Proliferation in a stress condition,[7],dose-dependent restored impaired proliferation of PC12 cells in a stress condition
same,Protection from ROS-induced cytotoxicity,[7],protected PC12 cells from ROS-induced cytotoxicity
same,p21 and cyclin D1 expression,[7],decreased expression of tumor suppressor protein p21 and increased expression of cell cycle-related cyclin D1
"OO [H2O2, hydrogen peroxide]",H2O2 concentration above which cytotoxic,[8],greater than 0.5 mM
same,"H2O2 cytotoxicity dose response, chronic",[8],also showed a dose-response effect
same,Reduction of cell viability by H2O2,[8],~ 60%
same,Metabolic viability,[9],32.23 ± 0.96%
RPPGFTPFRKA [megascoliakinin],Block of nAChR synaptic transmission,[10],irreversibly block the synaptic transmission of the nicotinic acetylcholine receptor (nAChR) in the prey central nervous system
"COC(=O)[C@@H](N)CCCNC(N)=N[N+](=O)[O-] [L-Name, L-N^Ω-Nitroarginine methyl ester]",Metabolic viability under H2O2,"[9]; pre-treatment 4 h, then + H2O2 0.6 mM 20 h, peptides 1 µM, L-Name 1 mM, Bk 0.30 μM, MTT",prevented the reduction of metabolic viability
DYVTVKGFSPLRKA [β-scoliidine],Cell integrity / neurotoxicity at 6 h,[2]; [11],decreased cell integrity after 6 h of treatment in all concentration tested
same,Cleavage by ACE,[3],not cleaved by the metallopeptidase
same,"metabolised at 4 h, 30 µM",[3],< 0.01%
same,metabolised,[4],< 0.01%
"RPPGFTPFR [Thr^6-BK, threonine^6-bradykinin]",Block of nAChR synaptic transmission,[10],irreversibly block the synaptic transmission of the nicotinic acetylcholine receptor (nAChR) in the prey central nervous system
"C[S+](C)[O-] [DMSO, dimethyl sulfoxide]",Cell integrity after 24 and 48 h,"[2]; 24 and 48 h, compared to the control group, peptides 0.1 to 10 µM, DMSO 2.5% (v/v), n = 3 in triplicate",decreased the cell integrity after 24 and 48 h compared to the control group
